Article PMC9256669, “Monomethyl auristatin antibody and peptide drug conjugates for trimodal cancer chemo-radio-immunotherapy” (Nature Communications, 2022)
Where “and” joins values, the source holds several entries; their conditions need not be identical. Equal entries are not always repeated. Where two headings read alike, the source gives them in different places. Non-standard residues stand in square brackets, D forms with d. Residues, ends and D or L forms follow the SMILES beside them. *: point of attachment. Dolaproine = CO[C@@H]([C@@H]1CCCN1)[C@@H](C)C(=O)O; Dil = CC[C@H](C)[C@H](NC)[C@@H](CC(=O)O)OC; X1 = C[C@@H](N*)[C@@H](O)c1ccccc1; NMeV = CN[C@H](C(=O)O)C(C)C

How the values were obtained:
B16 cells = test: Clonogenic survival with MMAE and 2 Gy (SF2); assay type: cell-based, murine; parameters: key to SF2: fraction surviving 2 Gy relative to non-irradiated cells; details: for SF2: Figure 3d, six single replicates
Method: Cells were treated with MMAE for 24 h and then irradiated with 2 Gy. […] Following IR, cells were counted, re-plated at varying cell numbers in drug free media. 10–14 days after initial seeding formed colonies were methanol fixed, stained with crystal violet, and counted. Surviving fraction at 2 Gy (SF2) was calculated as the fraction of cells surviving 2 Gy compared to non-irradiated cells.

[1] = Mouse body weight (safety of MMAE with IR, with or without anti-PD-1); details: ACPP-MMAE and IR
Excerpt: (§1) LL/2 cells treated with dose range of MMAE overnight and then […] in drug free media for 7-10 days to allow for visualized colonies to form.
(§2) Statistical significances calculated using one-way ANOVA with Tukey’s multiple comparisons test. 0.9 b) Cell cycle analysis […]
(§3) of MMAE treated LL/2 cells, mean ± SD, n=2. […]
(§4) experiments. c) Clonogenic survival of LL/2 cells treated with MMAE and 2 Gy (SF2). Cell Days viability normalized to non-irradiated cells for each drug condition and plotted as mean fractional survival ± SEM, n=6. Statistical significances calculated using one-way ANOVA with Sidak’s multiple comparisons test. d) Tumor volumes (n=10) and mouse body weights (n=5) of mice from experiments in Fig. 3e. Tumor volumes plotted as mean volume of surviving mice ± SEM.
(§5) Mouse body weight were normalized to each mouse’s weight on day 0, i.e. tumor implantation.
(§6) Data plotted as mean fractional body weight ± SEM. e) Mouse body weights of mice (n=5) from experiments in Fig. 4h were normalized to each mouse’s weight on day of tumor implantation.
(§7) Data is plotted as individual normalized body weights. f) Mouse body weights of mice from experiments in Fig. 5e, f were normalized to each mouse’s weight on day of tumor implantation.
(§8) Source data are provided in Source Data file.

MC38 tumors = tested on: MC38 tumors
Excerpt: as §1, §2, §3, §4, §5, §6, §7, §8

B16 tumors = tested on: B16 tumors
Excerpt: as §1, §2, §3, §4, §5, §6, §7, §8

LL/2 tumors = details: for Mouse survival, status: individual mice, status at the day, Figure 3e
Excerpt: as §1, §2, §3, §4, §5, §6, §7, §8

MOC2 tumors = test: Orthotopic tumor CyTOF analysis of immune infiltrate; assay type: in vivo, C57BL/6 mice; parameters: Immune cell quantification: M2 / CyTOF cell quantification, Immune cell quantification: CD4+ / CyTOF cell quantification, Immune cell quantification: M1 / CyTOF cell quantification, Immune cell quantification: M-MDSC / CyTOF cell quantification, Immune cell quantification: PMN-MDSC / CyTOF cell quantification, Immune cell quantification: Eosinophils / CyTOF cell quantification, Immune cell quantification: B cells: unit not given here
Method: 6-week-old C57BL/6 female mice were implanted with 50,000 MOC2 cells into the tongue. […] […] Tissues were incubated for 15 min at 37 °C and mechanically digested using the gentle MACs Octo Dissociator. Digested samples were then passed through a 100-µm strainer to acquire a single-cell. For viability staining, cells were washed in PBS and stained with Cell-ID Cisplatin (DVS Sciences) to a final concentration of 5 μM for 5 min at room temperature. Cisplatin was quenched when cells were washed and stained with the antibody cocktail. Antibodies were prepared in Maxpar cell staining buffer (PBS with 2 mM EDTA, 0.1% BSA, 0.05% NaN3) and incubated with cells for 15 min at room temperature. […] Antibodies (clone in parenthesis) used for CyTOF included B220 (RA3-6B2), CD117(2B8), CD11c (N418), CD25 (3C7), CD4 (RM4-5), CD45 (30-F11), CD8a (53-6.7), MHC-II (M5/114.15.2), NKP46 (29A1.4), TCRb (H57-597) from Fluidigm. Antibodies CD103 (2E7), CD115 (AFS98), CD11b (M1/70), CD19 (6D5), CD23 (B3B4), CD3 (145-2C11), CD64 (X54-5/7.1), F4/80 (BM8), FCeRI (Mar-1), FR4 (TH6), Ly6C (HK1.4), Ly6G (1A8), NK1.1 (PK136) from BioLegend and antibody Siglec-F (1RNM44N) from ebioscience. All antibodies were validated by the supplier and used at a 1:100 dilution. Cells were washed with staining buffer and pelleted. Before acquiring, cells were resuspended in 0.1× dilution of EQ Four Element Calibration beads (Fluidigm) and filtered through a 35 μm nylon mesh filter. Cells were acquired on a Helios CyTOF Mass Cytometer (Fluidigm) at an event rate of 200 events/s or less. Data was normalized using Matlab-based normalization software based on the EQ bead-removal. Prior to analysis, samples were subsampled to the lowest number of events and all counts were normalized to the same number of total events, 2324. To detect clusters of cells with a similar expression of surface markers in CyTOF, single cells were gated and clustered using unsupervised dimensionality reduction algorithm optimal t-Distributed Stochastic Neighbor Embedding (opt-SNE) algorithm in OMIQ data analysis software (www.omiq.ai) (530 iterations, Perplexity 30, and Theta 0.5)[51].
Supplementary Figure 8: CyTOF analysis of tumor immune infiltrates. a)
populations identified with opt-SNE. b) MOC2 murine tumors orthotopically implanted
Tumors harvested on day 11, analyzed by CyTOF,
provided in Source Data file.

[2] = 10 nmoles ACPP-MMAE x 2 doses, no IR
[3] = ACPP-MMAE alone, individual mice, status at the day, Figure 3e
[4] = 10 nmoles ACPP-MMAE x 2 doses + IR 5 Gy/day x 3

CC[C@H](C)[C@@H]([C@@H](CC(=O)N1CCC[C@H]1[C@H](OC)[C@@H](C)C(=O)N[C@H](C)[C@@H](O)c1ccccc1)OC)N(C)C(=O)[C@@H](NC(=O)[C@@H](NC)C(C)C)C(C)C [MMAE, monomethyl auristatin E] (H-[NMeV]V[Dil][Dolaproine]-X1)
SF2 (B16 cells; MMAE 1 nM with 2 Gy): 0.93 and 0.7 and 0.72 and 0.83 and 0.98 | SF2 (B16 cells; MMAE 2 nM with 2 Gy): 0.57 and 0.61 and 0.48 and 0.63 and 0.74 | SF2 (B16 cells; MMAE 3 nM with 2 Gy): 0.68 and 0.71 and 0.65 and 0.5 and 0.56 | radiosensitization, clonogenic cell death (B16 cells; murine tumor cells, single nanomolar doses of MMAE, 2 Gy): sensitized murine tumor cells to IR-mediated clonogenic cell death

cyclo(RGD)fc-MC-HN-peg8-e9-oPLGC(Me)AG-r9-c-(MC-VC-PABC-MMAE)-CONH2 [ACPP-MMAE]
adverse effects on mouse well-being by body weight [1]: no adverse effects | survival and tumor control, + IR (MC38 tumors; 10 nmoles ACPP-MMAE x 2 doses + IR 3 Gy/day x 3): long-term survival and tumor control | anti-tumor efficacy, monotherapy (MC38 tumors; [2]): lacked significant anti-tumor efficacy | Mouse survival, status (MC38 tumors; [3]): 1 | survival and tumor control, + IR (B16 tumors; [4]): long-term survival and tumor control | anti-tumor efficacy, monotherapy (B16 tumors; [2]): lacked significant anti-tumor efficacy | Mouse survival, status (B16 tumors; [3]): 1 | survival and tumor control, + IR (LL/2 tumors; [4]): modestly prolonged mouse survival and tumor control | anti-tumor efficacy, monotherapy (LL/2 tumors; [2]): lacked significant anti-tumor efficacy | Mouse survival, status (LL/2 tumors; ACPP-MMAE + IR): 1 | Mouse survival, status (LL/2 tumors; ACPP-MMAE alone): 1

CDX3379-MMAE: anti-HER3 antibody CDX3379 with 4 MMAE per antibody via MC-VC-PABC linker, labeled with Cy5
Immune cell quantification: CD8+ (MOC2 tumors; MOC2 tumors, 2.5 nmoles drug on day 7, CyTOF on day 11, counts normalized to 2324 total events (percent of counts as in Supp. Fig. 8b), one value per tumor, untreated 0.26, 1.08, 0.73, 0.77): 0.86 and 0.95 | Immune cell quantification: T regs (MOC2 tumors; MOC2 tumors, 2.5 nmoles drug on day 7, CyTOF on day 11, one value per tumor, untreated 0.52, 0.82, 0.90, 0.65): 1.64 and 1.12 and 1.68 | CyTOF cell quantification, Immune cell quantification: B cells (MOC2 tumors; Tumor #1): 1.59 | CyTOF cell quantification, Immune cell quantification: CD4+ (MOC2 tumors; Tumor #1): 3.49 | CyTOF cell quantification, Immune cell quantification: Eosinophils (MOC2 tumors; Tumor #1): 19.75 | CyTOF cell quantification, Immune cell quantification: M1 (MOC2 tumors; Tumor #1): 1.46 | CyTOF cell quantification, Immune cell quantification: M-MDSC (MOC2 tumors; Tumor #1): 5.98 | CyTOF cell quantification, Immune cell quantification: PMN-MDSC (MOC2 tumors; Tumor #1): 55.25 | CyTOF cell quantification, Immune cell quantification: B cells (MOC2 tumors; Tumor #2): 0.69 | CyTOF cell quantification, Immune cell quantification: CD4+ (MOC2 tumors; Tumor #2): 3.53 | CyTOF cell quantification, Immune cell quantification: Eosinophils (MOC2 tumors; Tumor #2): 13.68 | CyTOF cell quantification, Immune cell quantification: M1 (MOC2 tumors; Tumor #2): 0.69 | CyTOF cell quantification, Immune cell quantification: M-MDSC (MOC2 tumors; Tumor #2): 5.25 | CyTOF cell quantification, Immune cell quantification: PMN-MDSC (MOC2 tumors; Tumor #2): 63.34 | CyTOF cell quantification, Immune cell quantification: B cells (MOC2 tumors; Tumor #3): 1.94 | CyTOF cell quantification, Immune cell quantification: CD4+ (MOC2 tumors; Tumor #3): 1.98 | CyTOF cell quantification, Immune cell quantification: Eosinophils (MOC2 tumors; Tumor #3): 11.88 | CyTOF cell quantification, Immune cell quantification: M1 (MOC2 tumors; Tumor #3): 0.43 | CyTOF cell quantification, Immune cell quantification: M-MDSC (MOC2 tumors; Tumor #3): 4.09 | CyTOF cell quantification, Immune cell quantification: PMN-MDSC (MOC2 tumors; Tumor #3): 66.35 | CyTOF cell quantification, Immune cell quantification: B cells (MOC2 tumors; Tumor #4): 2.11 | CyTOF cell quantification, Immune cell quantification: CD4+ (MOC2 tumors; Tumor #4): 4.39 | CyTOF cell quantification, Immune cell quantification: Eosinophils (MOC2 tumors; Tumor #4): 27.02 | CyTOF cell quantification, Immune cell quantification: M1 (MOC2 tumors; Tumor #4): 0.47 | CyTOF cell quantification, Immune cell quantification: M-MDSC (MOC2 tumors; Tumor #4): 2.54 | CyTOF cell quantification, Immune cell quantification: PMN-MDSC (MOC2 tumors; Tumor #4): 51.89 | Immune cell quantification: M2 (MOC2 tumors; mouse, in vivo): 1.20 and 2.19 and 1.25 and 1.42 | tumor immune populations changed (CyTOF) (MOC2 tumors; orthotopic MOC2 tumors, single 2.5 nmole i.v. injection): regulatory T cells, dendritic cells and NK cells that were upregulated
